For data set [1], the system named is primary OPCs. The data set is described as follows: Screen for protection of OPC division at sublethal concentrations of psychosine. The format is cell-based, rat. Conditions: psychosine concentrations that suppress division without appreciable death. Here is the method: Experiments were conducted to identify FDA-approved agents that rescue precursor cells of the CNS from the effects of the lipids thought to be toxic in KD, GD and MLD. To identify therapeutic agents that could be candidates for relatively rapid translation to the clinic, candidate agents were screened (based on cellular and molecular analyses) and unbiased drug screens were conducted using the NINDSII library of 1040 compounds approved by the FDA or in clinical trials. The intent of these screens was to discover previously unknown activities of agents for which pharmacokinetic and toxicological information is already available. The initial screening assays used are for (i) protection against OPC death induced by lethal concentrations of toxic lipids (48 hr exposure) and (ii) protection of OPC division induced by exposure to sublethal concentrations of toxic lipids. […]

For data set [2], the system named is primary OPCs. In words: Screen for protection against OPC death induced by lethal concentrations of psychosine. It counts as cell-based, rat. Conditions: for rescue of cell survival from psychosine: primary OPCs, lethal psychosine exposure. Here is the method:
Experiments were conducted to identify FDA-approved agents that rescue precursor cells of the CNS from the effects of the lipids thought to be toxic in KD, GD and MLD. To identify therapeutic agents that could be candidates for relatively rapid translation to the clinic, candidate agents were screened (based on cellular and molecular analyses) and unbiased drug screens were conducted using the NINDSII library of 1040 compounds approved by the FDA or in clinical trials. The intent of these screens was to discover previously unknown activities of agents for which pharmacokinetic and toxicological information is already available. The initial screening assays used are for (i) protection against OPC death induced by lethal concentrations of toxic lipids (48 hr exposure) and (ii) protection of OPC division induced by exposure to sublethal concentrations of toxic lipids.
In this screen, a library of 1040 compounds, either approved for use or in clinical trials, were examined at three different doses for their ability to protect against psychosine-induced cell death. […]

The test system of data set [3] is primary OPCs. The data set is described as follows: Survival of OPCs exposed to toxic lipids (calcein AM / propidium iodide, CELIGO). It counts as cell-based. Here is the method:
Whether toxic lipids have similar effects on the function of oligodendrocyte precursor cells (OPCs, the direct ancestors of myelin-forming oligodendrocytes), due to the common features of myelin breakdown and failure to repair such damage in LSDs, was determined. These experiments all used standard techniques (see Mayer et al. PNAS, 91: 7496-7500 (1994); Ibarrola et al. Dev. Biol. 180: 1-121 (1996); Smith et al. PNAS 97: 10032-10037 (2000); Power et al. Dev. Biol. 245: 362-375 (2002); Dietrich et al. J. Biol. 5: e22 (2006); Li et al. PLoS Biol. 5: e35 (2007)), as adapted to enable rapid automated analysis of microscopy images captured using the CELIGO® imaging system (Brooks Automation, Chelmsford, Mass.). This system enables collection of data using brightfield and three-color fluorescence and provides similar information to be obtained at the single cell level in adherent cell cultures as yielded by flow cytometry. This approach enables quantitatively analysis of 80 different experimental conditions (in triplicate) per hour.
Studies on division and survival of OPCs exposed to 0.1, 0.5, 1, 2, 5 or 10 μM PC, GPS or LS were conducted for 1, 2, 3 or 5 days. These experiments followed standard procedures (see Mayer et al. PNAS, 91: 7496-7500 (1994); Dietrich et al. J. Biol. 5: e22 (2006); and Han et al. J. Biol. 7 (4):12 (2008)) except that cell death was quantified using calcein AM and propidium iodide (PI) labeling of live cultures was used to identify live and dead cells, respectively. […] These dyes effectively overcome the problems with dyes for which cell numbers are inferred from metabolic activity (e.g., MTT, Alamar Blue), and provide quantitative information on cell numbers. Independent confirmation was obtained in all cases by visual examination of cultures. In these, and all other cases, all experiments were repeated at least three times, and all data points were collected in triplicate. All experiments were conducted in conditions of 5% O2, to more closely mimic physiological oxygen concentrations.
The sensitivity of primary OPCs to PC was determined. The sensitivity of the cells to glucopsychosine (GPC) and lysosulfatide (LS) was also examined. […] Thus, OPCs are even more sensitive to PC than oligodendrocytes, which are sensitive at 10 μM psychosine. More critically, they are an order of magnitude more sensitive than indicated by studies described in Zaka et al. (Mol. Cell Neurosci. 30 (3): 398-407 (2005)) on immortalized cell lines.

The subject of data set [4] is human fetal neuroepithelial stem cells (hNSCs). In words: Sensitivity of human CNS precursor cells to toxic lipids. It counts as cell-based.
In data set [5] the test system is primary oligodendrocyte progenitor cells. In words: Protection of OPCs against toxicity of glucopsychosine and lysosulfatide. The conditions noted are these: OPC survival. The format is cell-based. The source says: Since lysosomal storage disorders are so rare, there is a strong disincentive to invest heavily in treatments. Therefore, there is a clear need to identify agents that would be of use in the treatment of multiple lysosomal storage disorders. […] Nonetheless, due to the importance of such a goal, the agents that protect against both cell death and suppression of cell division caused by exposure to psychosine were examined in order to determine their potential utility in protection against the toxic effects of glucopsychosine (elevated in Gaucher's disease) and of lysosulfatide (elevated in metachromatic leukodystrophy). These diseases were chosen as they come from two functionally different disease groups as defined by a cellular assay for lysosomal function wherein BODIPY-LacCer uptake is detected.
The ability of agents that protect against psychosine mediated suppression of cell division and cell survival to also protect against the toxicity of glucopsychosine and lysosulfatide was examined.

Data set [6] relates to twitcher −/− mice. In words: In vivo treatment of twitcher -/- mice (model of Krabbe disease). Conditions: for appearance and behavior (films, still images): 24-day-old twi−/− mice. The source says:
In order to determine whether agents identified in in vitro studies are capable of providing an in vivo benefit, the effects of IGF-1 were examined in twitcher −/− mice, an accepted model of Krabbe disease. The twitcher −/− mice harbor a mutation in galactocerebosidase that mimics Krabbe disease. The strategy for in vivo analyses was to determine whether FDA-approved compounds of potential interest improve neurological symptoms and/or extend survival times of twi−/− mice. These studies used techniques employed in studies on toxicity of chemotherapeutic agents for the CNS (See Dietrich et al. J. Biol. 5 (7): e22 (2006); Han et al. CNS J. Biol. 7: e12 (2008)).
In in vivo experiments, IGF-I was administered daily, beginning 10 days after birth, through i.p. injection (100 μg/kg, which is below dosages used in other studies using peripheral administration (See Aberg et al. J. Neurosci. 20: 2896-2903 (2000)). This time point is earlier than the expression of neurological symptoms but is considerably later than that used in attempts to treat these mice by HSC transplants, enzyme replacement therapy or both combined (See Qin et al. Mol. Genet. Metab. 107: 186-196 (2012)). Mice were evaluated at 24 days of age to enable analysis of cell division in vivo. Comparative analysis after 40 days was not possible due to death of the control (saline-treated) twi−/− mice shortly after 40 days of age.
Drugs are delivered once daily by i.p. administration (using 100 μg/kg, which provide benefit (see FIG. 8). All animals are marked and genotyped within the first week after birth to identify +/+, +/− and −/− pups. Outcome measures such as (i) weight gain, motor activity, rotorod analysis, auditory brainstem response and survival are analyzed.
Mice were sacrificed at Day 25 to examine OPC division in vivo (FIG. 8).

The subject of data set [7] is immortalized cell line characterized as an oligodendrocyte progenitor cell line. Conditions: Zaka et al.; immortalized cell line, 50 μM psychosine; cited from earlier work.
Where [8] appears, read: twi−/− mice, 24 days of age, 100 μg/kg i.p. daily.

“Also recorded” adds a separate entry of the source.

Regarding `COc1ccc(C(Cl)=C(c2ccc(OC)cc2)c2ccc(OC)cc2)cc1` [chlorotrianisene], the “rescue of cell division from psychosine” value is “inhibit cell death and reduce suppression of cell division” in data set [1]; “rescued both cell survival and cell division” in data set [1] (listed as Chlorotrianisene). For the same compound, the “rescue of cell survival from psychosine” value in data set [2] was “inhibit cell death and reduce suppression of cell division; also recorded: rescued both cell survival and cell division”.
Take `CC(C)(C)CC(C)(C)c1ccc(O)c(Cc2ccc(Cl)cc2Cl)c1` [clofoctol]: the “rescue of cell division from psychosine” value in data set [1] is “inhibit cell death and reduce suppression of cell division; also recorded: rescued both cell survival and cell division”. For the same compound, the “rescue of cell survival from psychosine” value in data set [2] was “inhibit cell death and reduce suppression of cell division; also recorded: rescued both cell survival and cell division”.
In the case of `C=C[C@@]1(C)CC(=O)[C@]2(O)[C@@]3(C)[C@@H](O)CCC(C)(C)[C@@H]3[C@H](O)[C@H](OC(C)=O)[C@@]2(C)O1` [colforsin], in data set [1], the “rescue of cell division from psychosine” value is “inhibit cell death and reduce suppression of cell division; also recorded: rescued both cell survival and cell division”. Further, in data set [2], the “rescue of cell survival from psychosine” value is “inhibit cell death and reduce suppression of cell division; also recorded: rescued both cell survival and cell division”.
Consider `CCCCCCCCCCCCC/C=C/[C@@H](O)C(N)CO[C@@H]1O[C@H](CO)[C@@H](O)[C@H](O)[C@@H]1O` (some centres unmarked) [glucopsychosine], for which, in data set [3], the “exposure level as low as which toxic for OPCs” value is recorded as 3.304; the “exposure range toxic for primary OPCs and other primary CNS cells” value is listed as “low micromolar range”. Further, in data set [4], the “vulnerability of hNSCs compared with rat OPCs” value is listed as “at least as vulnerable”.
For the compound `CCCCCCCCCCCCC/C=C/[C@@H](O)[C@@H](N)CO[C@@H]1O[C@H](CO)[C@H](O)[C@H](OS(=O)(=O)O)[C@H]1O` [lysosulfatide], in data set [3], the “exposure level as low as which toxic for OPCs” value is listed as 3.304; the “exposure range toxic for primary OPCs and other primary CNS cells” value is given as “low micromolar range”.
With `CC(C)(C)NCC(O)c1ccccc1Cl` (centres unmarked) [tulobuterol], the “rescue of cell division from psychosine” value in data set [1] was “inhibit cell death and reduce suppression of cell division; also recorded: rescued both cell survival and cell division”. Moreover, the “rescue of cell survival from psychosine” value in data set [2] is “inhibit cell death and reduce suppression of cell division; also recorded: rescued both cell survival and cell division”.
As to “IGF-1: insulin-like growth factor-I, polypeptide”, the “rescue of cell division from psychosine” value in data set [1] was “ability to protect both cell division and cell survival; also recorded: rescued both division and survival; also recorded: protects against psychosine mediated suppression of cell division and cell survival; also recorded: inhibit cell death and reduce suppression of cell division; also recorded: Rescue of cell division is also achieved at physiologically relevant dosages”. Besides, in data set [2] (primary OPCs exposed to psychosine), the “dosage at which beneficial effects on survival are seen” value came out at 10 ng/mL. Further, the “rescue of cell survival from psychosine” value in data set [2] was “ability to protect both cell division and cell survival; also recorded: rescued both division and survival; also recorded: protects against psychosine mediated suppression of cell division and cell survival; also recorded: inhibit cell death and reduce suppression of cell division”. Also, the “protection against toxicity of glucopsychosine” value in data set [5] was “protects against the toxicity of glucopsychosine and lysosulfatide; also recorded: similarly effective against lysosulfatide and glucopsychosine as it was against psychosine”. Also, the “protection against toxicity of lysosulfatide” value in data set [5] (survival data at 5 days) is “protects against the toxicity of glucopsychosine and lysosulfatide; also recorded: similarly effective against lysosulfatide and glucopsychosine as it was against psychosine”. For the same compound, the “appearance and behavior (films, still images)” value in data set [6] (100 μg/kg i.p. daily) is “normal body extension, sleek fur and evidence of extensive locomotor behavior”. For the same compound, the “appearance and behavior (films, still images)” value in data set [6] (100 μg/kg i.p. daily, listed as IGF-I) is listed as “essentially normal in appearance”. In data set [6] (setting [8]), the “locomotor activity (velocity of movement, cm/sec)” value is “statistically normal locomotor activity” and the weight gain result is on record as “normal weight gain”. The “locomotor activity (velocity of movement, cm/sec)” value in data set [6] (twi−/− mice, 24 days of age, 100 μg/kg i.p. daily, listed as IGF-I) is “restores movement to normal levels”. Also, in data set [6] (twi−/− mice, corpus callosum, Day 25, 100 μg/kg i.p. daily from 10 days after birth), the “more dividing OPCs than in saline-treated mice” value is recorded as approximately 45%. Besides, in data set [7], the “dose giving marked protection from psychosine-induced cell death” value was “one” and the “exposure level giving slight (marginal) reduction of psychosine-induced cell death” value was 100 ng/mL.
As to VEGF, the “rescue of cell division from psychosine” value in data set [1] was “ability to protect both cell division and cell survival; also recorded: inhibit cell death and reduce suppression of cell division”. Besides, in data set [2], the “rescue of cell survival from psychosine” value was “ability to protect both cell division and cell survival; also recorded: inhibit cell death and reduce suppression of cell division”.

(Values after patent US20160022775A1, “TREATING LYSOSOMAL STORAGE DISEASE” (UNIVERSITY OF ROCHESTER, priority 2013, published 2016).)
